Assay results reported in ChEMBL document CHEMBL1156292, “Zwittermicin A: synthesis of analogs and structure-activity studies” (2010).
In brackets after ≈: the same amount, converted by molar mass.

Tests used:
Type in all cases: functional
[1] = test system: Candida albicans; experiment: Antifungal activity against Candida albicans 96-489 by disk diffusion assay
[2] = test system: Nakaseomyces glabratus; experiment: Antifungal activity against Candida glabrata by disk diffusion assay
[3] = test system: Candida albicans; experiment: Antifungal activity against Candida albicans UCDFR1 by disk diffusion assay
[4] = test system: Candida albicans; experiment: Antifungal activity against Candida albicans ATCC 14503 by disk diffusion assay
[5] = test system: Pichia kudriavzevii; experiment: Antifungal activity against Candida krusei by disk diffusion assay
[6] = test system: Pectobacterium carotovorum; experiment: Antibacterial activity against Erwinia carotovora by disk diffusion assay
[7] = test system: Erwinia amylovora; experiment: Antibacterial activity against Erwinia amylovora by disk diffusion assay
[8] = test system: Phytophthora infestans; experiment: Antifungal activity against Phytophthora infestans by disk diffusion assay

| SMILES | MIC [1] | MIC [2] | MIC [3] | MIC [4] | MIC [5] | MIC [6] | MIC [7] | MIC [8] |
| --- | --- | --- | --- | --- | --- | --- | --- | --- |
| N[C@@H](CO)[C@H](O)C[C@@H](O)[C@@H](N)CO | > 128 µg/mL | > 128 µg/mL | > 128 µg/mL | > 128 µg/mL | > 128 µg/mL |  |  |  |
| N[C@H](CO)[C@@H](O)C[C@H](O)[C@@H](N)CO | > 128 µg/mL | > 128 µg/mL | > 128 µg/mL | > 128 µg/mL | > 128 µg/mL |  |  |  |
| N[C@@H](CO)[C@@H](O)C[C@H](O)[C@@H](N)CO | > 128 µg/mL | > 128 µg/mL | > 128 µg/mL | > 128 µg/mL | > 128 µg/mL |  |  |  |
| N[C@H](CO)[C@@H](O)C[C@H](O)[C@H](N)CO | > 128 µg/mL | > 128 µg/mL | > 128 µg/mL | > 128 µg/mL | > 128 µg/mL | > 128 µg/mL | > 128 µg/mL | > 32 µg/mL |
| NC(=O)NC[C@H](NC(=O)[C@@H](O)[C@H](O)[C@H](N)CO)C(N)=O | > 128 µg/mL | > 128 µg/mL | > 128 µg/mL | > 128 µg/mL | > 128 µg/mL | > 128 µg/mL | > 128 µg/mL | > 32 µg/mL |
| NC(=O)NC[C@@H](NC(=O)[C@@H](O)[C@H](O)[C@H](N)CO)C(N)=O | > 128 µg/mL | > 128 µg/mL | > 128 µg/mL | > 128 µg/mL | > 128 µg/mL | > 128 µg/mL | > 128 µg/mL | > 32 µg/mL |
| N[C@@H](CO)[C@H](O)C[C@H](O)[C@@H](N)CO | > 128 µg/mL | > 128 µg/mL | > 128 µg/mL | > 128 µg/mL | > 128 µg/mL |  |  |  |
| N[C@H](CO)[C@H](O)C[C@H](O)[C@@H](N)CO | > 128 µg/mL | > 128 µg/mL | > 128 µg/mL | > 128 µg/mL | > 128 µg/mL |  |  |  |
| NC(=O)NC[C@H](NC(=O)[C@H](O)[C@@H](O)[C@@H](N)[C@@H](O)C[C@H](O)[C@H](N)CO)C(N)=O | 55.7 µg/mL (≈ 141 µM) | 59.5 µg/mL (≈ 150 µM) | > 128 µg/mL | > 128 µg/mL | > 128 µg/mL | 22.2 µg/mL (≈ 56 µM) | 18.8 µg/mL (≈ 47.4 µM) | > 32 µg/mL |
| NC(=O)NC[C@H](NC(=O)[C@@H](O)[C@H](O)[C@H](N)[C@H](O)C[C@@H](O)[C@@H](N)CO)C(N)=O | > 128 µg/mL | > 128 µg/mL | > 128 µg/mL | > 128 µg/mL | > 128 µg/mL | > 128 µg/mL | > 128 µg/mL | > 32 µg/mL |
| NC(=O)NC[C@H](NC(=O)[C@H](O)[C@@H](O)[C@@H](N)[C@@H](O)C[C@@H](O)[C@@H](N)CO)C(N)=O | > 128 µg/mL | > 128 µg/mL | > 128 µg/mL | > 128 µg/mL | > 128 µg/mL | > 128 µg/mL | > 128 µg/mL | > 32 µg/mL |
| N[C@H](CO)[C@H](O)C[C@H](O)[C@H](N)CO | > 128 µg/mL | > 128 µg/mL | > 128 µg/mL | > 128 µg/mL | > 128 µg/mL |  |  |  |
| NC(=O)NC[C@@H](NC(=O)[C@H](O)[C@@H](O)[C@@H](N)[C@@H](O)C[C@@H](O)[C@@H](N)CO)C(N)=O | > 128 µg/mL | > 128 µg/mL | > 128 µg/mL | > 128 µg/mL | > 128 µg/mL | > 128 µg/mL | > 128 µg/mL | > 32 µg/mL |
| NC(=O)NC[C@@H](NC(=O)[C@@H](O)[C@H](O)[C@H](N)[C@H](O)C[C@@H](O)[C@@H](N)CO)C(N)=O [ENT-ZWITTERMICIN A] | > 128 µg/mL | > 128 µg/mL | > 128 µg/mL | > 128 µg/mL | > 128 µg/mL | > 128 µg/mL | > 128 µg/mL | > 32 µg/mL |
